The subject of the experiment is L1210 leukemia ip in BDF1 mice, survival T/C. Kind of experiment: NCI In Vivo Anticancer Drug Screen. Data for tumor model L1210 Leukemia (intraperitoneal) in B6D2F1 (BDF1) mice. The following applies: endpoint: mean survival time, higher = longer survival. The gist of the method:
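Survival endpoint. Drug-treated group vs vehicle group, expressed as T divided by C. Tumor passaged by transplantation.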

The mark [1] stands for this setting: dose: 100.0 mg/kg/injection, schedule: Q01DX001 (ip), vehicle: carboxymethylcellulose (CMC).
Setting [2] is: dose: 100.0 mg/kg/injection, schedule: Q01DX009 (ip), vehicle: saline.
Setting [3] is: dose: 200.0 mg/kg/injection, schedule: Q01DX001 (ip), vehicle: carboxymethylcellulose (CMC).
[4] abbreviates: dose: 100.0 mg/kg/injection, schedule: Q01DX001 (ip), vehicle: saline.
Setting [5] is: dose: 100.0 mg/kg/injection, schedule: Q04DX003 (ip), vehicle: Klucel (hydroxypropylcellulose) (HPC).
The mark [6] stands for this setting: dose: 200.0 mg/kg/injection, schedule: Q01DX001 (ip), vehicle: saline.
Setting [7] is: dose: 200.0 mg/kg/injection, schedule: Q04DX003 (ip), vehicle: Klucel (hydroxypropylcellulose) (HPC).
Setting [8] is: dose: 400.0 mg/kg/injection, schedule: Q01DX001 (ip), vehicle: saline.
Setting [9] is: dose: 25.0 mg/kg/injection, schedule: Q04DX003 (ip), vehicle: saline.
Where [10] appears, read: dose: 50.0 mg/kg/injection, schedule: Q04DX003 (ip), vehicle: saline.
Setting [11] is: dose: 100.0 mg/kg/injection, schedule: Q04DX003 (ip), vehicle: saline.
The mark [12] stands for this setting: dose: 200.0 mg/kg/injection, schedule: Q04DX003 (ip), vehicle: saline.
Where [13] appears, read: dose: 400.0 mg/kg/injection, schedule: Q04DX003 (ip), vehicle: saline.

“And” between values parts separate entries of the source, which are not always exact repeats. Identical values can stand only once. Toxic doses and inconclusive results are not listed.

`COc1cc(NC(=O)CN(CCCl)CCCl)cc(OC)c1OC`: the T/C (dose: 13.3 mg/kg/injection, schedule: Q01DX009 (ip), vehicle: carboxymethylcellulose (CMC)) is 116 % of control; the T/C (dose: 20.0 mg/kg/injection, schedule: Q01DX009 (ip), vehicle: carboxymethylcellulose (CMC)) was 100 % of control; the T/C (dose: 25.0 mg/kg/injection, schedule: Q01DX001 (ip), vehicle: carboxymethylcellulose (CMC)) is 122 % of control; the T/C (dose: 30.0 mg/kg/injection, schedule: Q01DX009 (ip), vehicle: carboxymethylcellulose (CMC)) was 124 % of control; the T/C (dose: 44.4 mg/kg/injection, schedule: Q01DX009 (ip), vehicle: carboxymethylcellulose (CMC)) was 123 % of control; the T/C (dose: 45.0 mg/kg/injection, schedule: Q01DX009 (ip), vehicle: carboxymethylcellulose (CMC)) was 107 % of control. Also, the T/C (dose: 50.0 mg/kg/injection, schedule: Q01DX001 (ip), vehicle: carboxymethylcellulose (CMC)) is 116 % of control; the T/C (dose: 66.6 mg/kg/injection, schedule: Q01DX009 (ip), vehicle: carboxymethylcellulose (CMC)) was 110 % of control; the T/C (dose: 89.0 mg/kg/injection, schedule: Q01DX001 (ip), vehicle: carboxymethylcellulose (CMC)) was 112 % of control; the T/C (dose: 89.0 mg/kg/injection, schedule: Q01DX001 (ip), vehicle: saline) is 118 % of control; the T/C under setting [1] was 119 % of control; the T/C (dose: 100.0 mg/kg/injection, schedule: Q01DX009 (ip), vehicle: carboxymethylcellulose (CMC)) is 86 % of control. The T/C runs as follows: under setting [2], 170 % of control; (dose: 133.0 mg/kg/injection, schedule: Q01DX001 (ip), vehicle: carboxymethylcellulose (CMC)) 102 % of control and 115 % of control; (dose: 150.0 mg/kg/injection, schedule: Q01DX009 (ip), vehicle: carboxymethylcellulose (CMC)) 88 % of control; (dose: 150.0 mg/kg/injection, schedule: Q01DX009 (ip), vehicle: saline) 90 % of control; under setting [3], 114 % of control and 120 % of control; (dose: 300.0 mg/kg/injection, schedule: Q01DX001 (ip), vehicle: carboxymethylcellulose (CMC)) 107 % of control.

Take `COC(c1ccccc1)C(OC)c1ccccc1` (stereo not given): the T/C (dose: 50.0 mg/kg/injection, schedule: Q04DX003 (ip), vehicle: Klucel (hydroxypropylcellulose) (HPC)) was 96 % of control; the T/C under setting [4] was 109 % of control; the T/C under setting [5] is 98 % of control; the T/C under setting [6] is 94 % of control; the T/C under setting [7] was 98 % of control; the T/C under setting [8] was 103 % of control.

As to `CCOC(=O)Cn1c(=O)ssc1=O`, the T/C by setting is: under setting [9], 100 % of control; under setting [10], 100 % of control; under setting [11], 100 % of control.

For the compound `CCOc1ccccc1NC(=O)Nc1cccc(C(F)(F)F)c1`, the T/C (dose: 100.0 mg/kg/injection, schedule: Q04DX002 (ip), vehicle: Klucel (hydroxypropylcellulose) (HPC)) was 99 % of control; the T/C (dose: 200.0 mg/kg/injection, schedule: Q04DX002 (ip), vehicle: Klucel (hydroxypropylcellulose) (HPC)) was 92 % of control; the T/C (dose: 400.0 mg/kg/injection, schedule: Q04DX002 (ip), vehicle: Klucel (hydroxypropylcellulose) (HPC)) is 89 % of control.

Take `NC(=O)N/N=C/C1CCC=CO1` (stereo not given): the T/C reads like this: (dose: 100.0 mg/kg/injection, schedule: Q01DX009 (ip), vehicle: Klucel (hydroxypropylcellulose) (HPC)) 94 % of control; (dose: 200.0 mg/kg/injection, schedule: Q01DX009 (ip), vehicle: Klucel (hydroxypropylcellulose) (HPC)) 102 % of control; (dose: 400.0 mg/kg/injection, schedule: Q01DX009 (ip), vehicle: Klucel (hydroxypropylcellulose) (HPC)) 103 % of control.

With `CCNC(=S)NCC`, the T/C reads like this: (dose: 100.0 mg/kg/injection, schedule: Q04DX003 (ip), vehicle: carboxymethylcellulose (CMC)) 98 % of control; (dose: 200.0 mg/kg/injection, schedule: Q04DX003 (ip), vehicle: carboxymethylcellulose (CMC)) 102 % of control; (dose: 400.0 mg/kg/injection, schedule: Q04DX003 (ip), vehicle: carboxymethylcellulose (CMC)) 107 % of control.

`O=CO.[Cd]`: the T/C (dose: 5.0 mg/kg/injection, schedule: Q01DX001 (ip), vehicle: saline) is 104 % of control.

For `CC(=O)Nc1ccc2c(c1)[nH]c(=O)c1ccccc12`, the T/C reads like this: under setting [1], 96 % of control; under setting [3], 93 % of control; (dose: 400.0 mg/kg/injection, schedule: Q01DX001 (ip), vehicle: carboxymethylcellulose (CMC)) 96 % of control.

Take `COc1cc([N+](=O)[O-])c(C=O)cc1O`: the T/C is 97 % of control (dose: 100.0 mg/kg/injection, schedule: Q01DX009 (ip), vehicle: acetone); 100 % of control (dose: 200.0 mg/kg/injection, schedule: Q01DX009 (ip), vehicle: acetone); 100 % of control (dose: 400.0 mg/kg/injection, schedule: Q01DX009 (ip), vehicle: acetone).

Take `OCC1C2CCC(C2)C1CO` (stereo not given): the T/C (dose: 50.0 mg/kg/injection, schedule: Q01DX009 (ip), vehicle: saline with Tween-80) was 96 % of control.

Regarding `BrCC1OCC2(CO1)COC(CBr)OC2` (stereo not given), the T/C by setting is: under setting [5], 96 % of control; under setting [7], 104 % of control.

For `Cc1ncc(CO)c(/C=N\OCc2cc(Cl)sc2Cl)c1O`, the T/C under setting [5] is 93 % of control; the T/C under setting [7] is 93 % of control; the T/C (dose: 400.0 mg/kg/injection, schedule: Q04DX003 (ip), vehicle: Klucel (hydroxypropylcellulose) (HPC)) is 104 % of control.

`C1OC1[C@@H]1CC[C@H]1C1CO1` (stereo not given in full): the T/C runs as follows: (dose: 50.0 mg/kg/injection, schedule: Q01DX001 (ip), vehicle: saline) 98 % of control and 112 % of control; (dose: 51.1 mg/kg/injection, schedule: Q01DX Z (ip), vehicle: carboxymethylcellulose (CMC)) 103 % of control; (dose: 51.1 mg/kg/injection, schedule: Q01DX Z (ip), vehicle: methylcellulose (MC)) 109 % of control; (dose: 76.6 mg/kg/injection, schedule: Q01DX Z (ip), vehicle: carboxymethylcellulose (CMC)) 114 % of control; (dose: 76.6 mg/kg/injection, schedule: Q01DX Z (ip), vehicle: methylcellulose (MC)) 118 % of control; (dose: 88.0 mg/kg/injection, schedule: Q01DX001 (ip), vehicle: saline) 107 % of control. Also, the T/C was 112 % of control and 118 % of control under setting [4]; 106 % of control (dose: 115.0 mg/kg/injection, schedule: Q01DX Z (ip), vehicle: methylcellulose (MC)); 109 % of control (dose: 133.0 mg/kg/injection, schedule: Q01DX001 (ip), vehicle: saline).

In the case of `CC1(C)C2CCC3C(C#N)C(CCC#N)C=CC3C21` (stereo not given), the T/C is 98 % of control (dose: 100.0 mg/kg/injection, schedule: Q04DX003 (sc), vehicle: olive oil, sesame oil, peanut oil); 97 % of control (dose: 200.0 mg/kg/injection, schedule: Q04DX003 (sc), vehicle: olive oil, sesame oil, peanut oil); 101 % of control (dose: 400.0 mg/kg/injection, schedule: Q04DX003 (sc), vehicle: olive oil, sesame oil, peanut oil).

Consider `COC(=N)c1ccc2c(c1)OCO2`, for which the T/C reads like this: under setting [11], 94 % of control; under setting [12], 94 % of control; under setting [13], 100 % of control.

`CCCC(C(O)CC)[N+](=O)[O-]` (stereo not given): the T/C reads like this: (dose: 100.0 mg/kg/injection, schedule: Q01DX001 (ip), vehicle: Klucel (hydroxypropylcellulose) (HPC)) 95 % of control; (dose: 200.0 mg/kg/injection, schedule: Q01DX001 (ip), vehicle: Klucel (hydroxypropylcellulose) (HPC)) 97 % of control; (dose: 400.0 mg/kg/injection, schedule: Q01DX001 (ip), vehicle: Klucel (hydroxypropylcellulose) (HPC)) 101 % of control.

Regarding `Cc1cccc(Cl)c1NC(=O)CCC(=O)O`, the T/C under setting [4] was 101 % of control, the T/C under setting [6] was 101 % of control and the T/C under setting [8] is 95 % of control.

`Cc1ccccc1OCC(O)CO` (stereo not given): the T/C (dose: 25.0 mg/kg/injection, schedule: Q01DX009 (ip), vehicle: saline) is 95 % of control; the T/C under setting [9] was 101 % of control; the T/C (dose: 50.0 mg/kg/injection, schedule: Q01DX009 (ip), vehicle: saline) is 93 % of control; the T/C under setting [10] is 95 % of control; the T/C under setting [2] was 102 % of control; the T/C under setting [11] is 95 % of control. In addition, the T/C by setting is: (dose: 200.0 mg/kg/injection, schedule: Q01DX009 (ip), vehicle: saline) 102 % of control; under setting [12], 111 % of control; (dose: 400.0 mg/kg/injection, schedule: Q01DX009 (ip), vehicle: saline) 98 % of control; under setting [13], 123 % of control.

For the origin of these results see PubChem BioAssay AID248 (DTP/NCI, 2004).
